{
  "source": "patent US6911477B2",
  "about": "“Muscarinic receptor agonists” (Pfizer Inc., priority 1996, dated 2005)",
  "note": "Counter-ions that a name gives are not always drawn.",
  "data": [
    {"smiles": "Cc1ccccc1C(=Nc1ccccc1)NC(=Nc1ccccc1)N1CCC(O)CC1", "note": "(as salt: hydrochloride) [Example 24, N-[(4-hydroxy-piperidin-1-yl)-phenylimino-methyl]-2-methyl-N′-phenyl-benzamidine]", "values": [
      {"measurement": "melting point", "result": "218 to 220", "unit": "°C"}
    ]},
    {"smiles": "Fc1ccc(N=C(NC(=Nc2ccc(F)cc2)N2CCCCCC2)c2c(F)cccc2F)cc1", "note": "(as salt: hydrochloride) [Example 57, N-[azepan-1-yl-(4-fluoro-phenylimino)-methyl]-2,6-difluoro-N′-(4-fluoro-phenyl)-benzamidine]", "values": [
      {"measurement": "melting point", "result": "216 to 218", "unit": "°C"}
    ]},
    {"smiles": "Cc1ccccc1C(=Nc1ccc(F)cc1)NC(=NC1CCCCC1)N1CCCCC1C", "note": "(stereo not shown) (as salt: hydrochloride) [Example 97, N-[cyclohexylimino-(2-methyl-piperidin-1-yl)-methyl]-N′-(4-fluoro-phenyl)-2-methyl-benzamidine]", "values": [
      {"measurement": "melting point", "result": "> 160 °C (dec.)"}
    ]},
    {"smiles": "CCC(C)N=C(NC(=Nc1ccc(F)cc1)c1c(C)cccc1C)N1CCCCC1C", "note": "(stereo not shown) (as salt: hydrochloride) [Example 98, N-[sec-butylimino-(2-methyl-piperidin-1-yl)-methyl]-N′-(4-fluoro-phenyl)-2,6-dimethyl-benzamidine]", "values": [
      {"measurement": "melting point", "result": "168 to 170 °C (dec.)"}
    ]},
    {"smiles": "Cc1cccc(C)c1C(=NC(=Nc1ccccc1)N1CCC(O)CC1C)Nc1ccc(F)cc1", "note": "(stereo not shown) (as salt: hydrochloride) [Example 72, N-(4-fluoro-phenyl)-N′-[(4-hydroxy-2-methyl-piperidin-1-yl)-phenylimino-methyl]-2,6-dimethyl-benzamidine]", "values": [
      {"measurement": "melting point", "result": "163 to 166 °C (dec.)"}
    ]},
    {"smiles": "Cc1ccccc1C(=NC(=Nc1ccccc1)N1CCCC(O)C1)Nc1ccc(F)cc1", "note": "(stereo not shown) (as salt: hydrochloride) [Example 66, N-(4-fluoro-phenyl)-N′-[(3-hydroxy-piperidin-1-yl)-phenylimino-methyl]-2-methyl-benzamidine]", "values": [
      {"measurement": "melting point", "result": "> 150", "unit": "°C"}
    ]},
    {"smiles": "Cc1ccccc1C(=Nc1ccc(F)cc1)NC(=NC1CCCCC1)C1(C)CCCCC1", "note": "(as salt: hydrochloride) [Example 96, N-[cyclohexylimino-(1-methyl-cyclohexyl)-methyl]-N′-(4-fluoro-phenyl)-2-methyl-benzamidine]", "values": [
      {"measurement": "melting point", "result": "127 to 129", "unit": "°C"}
    ]},
    {"smiles": "Fc1ccc(N=C(NC(=Nc2ccccc2)c2ccccc2)N2CCCC2)cc1", "note": "(as salt: hydrochloride) [Example 25, N-[(4-fluoro-phenylimino)-pyrrolidin-1-yl-methyl]-N′-phenyl-benzamidine]", "values": [
      {"measurement": "melting point", "result": "242 to 243", "unit": "°C"}
    ]},
    {"smiles": "Fc1ccc(N=C(NC(=Nc2ccccc2)N2CCCCCC2)c2ccccc2)cc1", "note": "(as salt: hydroiodid) [Example 19, N-(azepan-1-yl-phenylimino-methyl)-N′-(4-fluoro-phenyl)-benzamidine]", "values": [
      {"measurement": "melting point", "result": "> 228 °C (dec.)"}
    ]},
    {"smiles": "Fc1ccc(N=C(NC(=Nc2ccccc2)N2CCCCCC2)c2c(F)cccc2F)cc1", "note": "(as salt: nitrate) [Example 56, N-(azepan-1-yl-phenylimino-methyl)-2,6-difluoro-N′-(4-fluoro-phenyl)-benzamidine]", "values": [
      {"measurement": "melting point", "result": "171 to 173", "unit": "°C"}
    ]},
    {"smiles": "Cc1cccc(C)c1C(=NC(=Nc1ccccc1)N1CCC(O)CC1)Nc1ccc(F)cc1", "note": "(as salt: hydrochloride) [Example 9, N-(4-Fluoro-phenyl)N′-[(4-hydroxy-piperidin-1-yl)-phenylimino-methyl]-2,6-dimethyl-benzamidine]", "values": [
      {"measurement": "melting point", "result": "163 to 165", "unit": "°C"}
    ]},
    {"smiles": "CC1CCCC(C)N1C(=Nc1ccc(F)cc1)NC(=Nc1ccc(F)cc1)c1c(F)cccc1F", "note": "(stereo not shown) (as salt: nitrate) [Example 52, N-[(2,6-dimethyl-piperidin-1-yl)-(4-fluoro-phenylimino)-methyl]-2,6-difluoro-N′-(4-fluoro-phenyl)-benzamidine]", "values": [
      {"measurement": "melting point", "result": "172 to 174", "unit": "°C"}
    ]},
    {"smiles": "Cc1ccccc1C(=CC(=Nc1ccccc1)N1CCCCO1)Nc1ccc(F)cc1", "note": "(as salt: nitrate) [Example 91, (3-phenylimino-3-[1,2]oxazinan-2-yl-1-o-tolyl-propenyl)-(4-fluoro-phenyl)-amine]", "values": [
      {"measurement": "melting point", "result": "151 to 153", "unit": "°C"}
    ]},
    {"smiles": "Cc1cccc(C)c1C(=Nc1ccc(F)cc1)NC(=Nc1ccccc1Cl)N1CCCCC1C", "note": "(stereo not shown) (as salt: hydrochloride) [Example 85, N-[(2-chloro-phenylimino)-(2-methyl-piperidin-1-yl)-methyl]-N′-(4-fluoro-phenyl)-2,6-dimethyl-benzamidine]", "values": [
      {"measurement": "melting point", "result": "207 to 209", "unit": "°C"}
    ]},
    {"smiles": "Cc1cccc(C)c1C(=Nc1ccc(F)cc1)NC(=NC1CC1)N1CCCCO1", "note": "(as salt: hydrochloride) [Example 104, N-(cyclopropylimino-[1,2]oxazinan-2-yl-methyl)-N′-(4-fluoro-phenyl)-2,6-dimethyl-benzamidine]", "values": [
      {"measurement": "melting point", "result": "229 to 231 °C (dec.)"}
    ]},
    {"smiles": "CCC1CCCCN1C(=Nc1ccccc1)NC(=Nc1ccc(F)cc1)c1c(C)cccc1C", "note": "(stereo not shown) (as salt: hydrochloride) [Example 58, N-[(2-ethyl-piperidin-1-yl)-phenylimino-methyl]-N′-(4-fluoro-phenyl)-2,6-dimethyl-benzamidine]", "values": [
      {"measurement": "melting point", "result": "137 to 139 °C (dec.)"}
    ]},
    {"smiles": "Cc1cccc(C)c1C(=Nc1ccc(F)cc1)NC(=Nc1ccc(F)cc1)N1CCCCCC1", "note": "(as salt: hydrochloride) [Example 49, N-[azepan-1-yl-(4-fluoro-phenylimino)-methyl]-N′-(4-fluoro-phenyl)-2,6-dimethyl-benzamidine]", "values": [
      {"measurement": "melting point", "result": "155 to 157", "unit": "°C"}
    ]},
    {"smiles": "CC1CCN(C(=Nc2ccccc2)NC(=Nc2ccccc2)c2ccccc2)CC1", "note": "(as salt: hydroiodid) [Example 21, N-[(4-methyl-piperidin-1-yl)-phenylimino-methyl]-N′-phenyl-benzamidine]", "values": [
      {"measurement": "melting point", "result": "192 to 195 °C (dec.)"}
    ]},
    {"smiles": "Cc1cccc(C)c1C(=NC(=Nc1ccccc1)N1CCCC(O)C1)Nc1ccc(F)cc1", "note": "(stereo not shown) (as salt: hydrochloride) [Example 62, N-(4-fluoro-phenyl)-N′-[(3-hydroxy-piperidin-1-yl)-phenylimino-methyl]-2,6-dimethyl-benzamidine]", "values": [
      {"measurement": "melting point", "result": "196 to 198 °C (dec.)"}
    ]},
    {"smiles": "Cc1ccccc1C(=CC(=NC1CCCCC1)N1CCCCO1)Nc1ccc(F)cc1", "note": "(as salt: hydrochloride) [Example 95, (3-cyclohexylimino-3-[1,2]oxazinan-2-yl-1-o-tolyl-propenyl)-(4-fluoro-phenyl)-amine]", "values": [
      {"measurement": "melting point", "result": "171 to 172", "unit": "°C"}
    ]},
    {"smiles": "Cc1ccccc1C(=Nc1ccc(F)cc1)NC(=Nc1ccccc1Cl)N1CCCCC1C", "note": "(stereo not shown) (as salt: hydrochloride) [Example 79, N-[(2-chloro-phenylimino)-(2-methyl-piperidin-1-yl)-methyl]-N′-(4-fluoro-phenyl)-2-methyl-benzamidine]", "values": [
      {"measurement": "melting point", "result": "208 to 210", "unit": "°C"}
    ]},
    {"smiles": "CC1CCCCN1C(N=C(Nc1ccc(F)cc1)c1c(F)cccc1F)=Nc1ccccc1", "note": "(stereo not shown) (as salt: nitrate) [Example 44, 2,6-difluoro-N-(4-fluoro-phenyl)-N′-[(2-methyl-piperidin-1-yl)-phenylimino-methyl]-benzamidine]", "values": [
      {"measurement": "melting point", "result": "163 to 165 °C (dec.)"}
    ]},
    {"smiles": "Cc1ccccc1C(=NC(=Nc1ccccc1)N1CCCCC1C)Nc1ccc(F)cc1", "note": "(stereo not shown) (as salt: hydrochloride) [Example 28, N-(4-fluoro-phenyl)-2-methyl-N′-[(2-methyl-piperidin-1-yl)-phenylimino-methyl]-benzamidine]", "values": [
      {"measurement": "melting point", "result": "173 to 175", "unit": "°C"}
    ]},
    {"smiles": "c1ccc(N=C(N=C(Nc2ccccc2)c2ccccc2)N2CCSCC2)cc1", "note": "(as salt: hydroiodid) [Example 13, N-phenyl-N′-(phenylimino-thiomorpholin-4-yl-methyl)-benzamidine]", "values": [
      {"measurement": "melting point", "result": "216 to 218 °C (dec.)"}
    ]},
    {"smiles": "Cc1cccc(C)c1C(=Nc1ccc(F)cc1)NC(=Nc1cccc(N)c1)N1CCCCC1C", "note": "(stereo not shown) (as salt: hydrochloride) [Example 70, N-[(3-amino-phenylimino)-(2-methyl-piperidin-1-yl)-methyl]-N′-(4-fluoro-phenyl)-2,6-dimethyl-benzamidine]", "values": [
      {"measurement": "melting point", "result": "210 to 213", "unit": "°C"}
    ]},
    {"smiles": "CC1CCCCN1C(=Nc1ccccc1)NC(=Nc1ccccc1)c1ccccc1", "note": "(stereo not shown) (as salt: hydroiodid) [Example 32, N-[(2-methyl-piperidin-1-yl)-phenylimino-methyl]-N′-phenyl-benzamidine]", "values": [
      {"measurement": "melting point", "result": "181 to 183", "unit": "°C"}
    ]},
    {"smiles": "Clc1ccc(NC(=NC(=Nc2ccccc2)N2CCCC2)c2ccccc2)cc1", "note": "(as salt: hydrochloride) [Example 16, N-(4-chloro-phenyl)-N′-(phenylimino-pyrrolidin-1-yl-methyl)-benzamidine]", "values": [
      {"measurement": "melting point", "result": "219 to 221", "unit": "°C"}
    ]},
    {"smiles": "Cc1cccc(C)c1C(=Nc1ccccc1)NC(=Nc1ccccc1)N1CCCC1", "note": "(as salt: hydroiodid) [Example 31, N-[(2,6-dimethyl-phenyl)-phenylimino-methyl]-N′-phenyl-pyrrolidine-1-carboxamidine]", "values": [
      {"measurement": "melting point", "result": "255 to 257", "unit": "°C"}
    ]},
    {"smiles": "Cc1ccccc1C(=Nc1ccc(F)cc1)NC(=Nc1ccccc1)C12CC3CC(CC(C3)C1)C2", "note": "(as salt: hydrochloride) [Example 47, N-(adamantan-1-yl-phenylimino-methyl)-N′-(4-fluoro-phenyl)-2-methyl-benzamidine]", "values": [
      {"measurement": "melting point", "result": "219 to 221", "unit": "°C"}
    ]},
    {"smiles": "COc1ccc(NC(=NC(=Nc2ccccc2)N2CCCCO2)c2c(C)cccc2C)cc1", "note": "(as salt: hydrochloride) [Example 67, N-(4-methoxy-phenyl)-2,6-dimethyl-N′-([1,2]oxazinan-2-yl-phenylimino-methyl)-benzamidine]", "values": [
      {"measurement": "melting point", "result": "214 to 215", "unit": "°C"}
    ]},
    {"smiles": "Cc1ccccc1C(=NC(=Nc1ccccc1)N1CCC(=O)CC1)Nc1ccc(F)cc1", "note": "(as salt: hydrochloride) [Example 8, N-(4-Fluoro-phenyl)-2-methyl-N′-[(4-oxo-piperidin-1-yl)-phenylimino-methyl]-benzamidine]", "values": [
      {"measurement": "melting point", "result": "234 to 235", "unit": "°C"}
    ]},
    {"smiles": "COc1ccc(NC(=CC(=Nc2ccccc2)N2CCCCO2)c2ccccc2C)cc1", "note": "(as salt: hydrochloride) [Example 94, (3-phenylimino-3-[1,2]oxazinan-2-yl-1-o-tolyl-propenyl)-(4-methoxy-phenyl)-amine]", "values": [
      {"measurement": "melting point", "result": "192 to 194", "unit": "°C"}
    ]},
    {"smiles": "Cc1cccc(C)c1C(=NC(=Nc1ccccc1)N1CCCCO1)Nc1ccc(F)cc1", "note": "(as salt: hydrochloride) [Example 61, N-(4-fluoro-phenyl)-2,6-dimethyl-N′-([1,2]oxazinan-2-yl-phenylimino-methyl)-benzamidine]", "values": [
      {"measurement": "melting point", "result": "212 to 214 °C (dec.)"}
    ]},
    {"smiles": "c1ccc(N=C(NC(=Nc2ccccc2)N2CCCCO2)c2ccccc2)cc1", "note": "(as salt: nitrate) [Example 4, N-([1,2]Oxazinan-2-yl-phenylimino-methyl)-N′-phenyl-benzamidine]", "values": [
      {"measurement": "melting point", "result": "187 to 190", "unit": "°C"}
    ]}
  ]
}
